Where two headings read alike, the source gives them in different places.
Columns and labels:
[1] = system: human left internal mammary artery (LIMA); experiment: Vascular ring physiology, isolated human left internal mammary artery rings; details: for response in HI K+-precontracted LIMA, % of HI K+ tension (contraction): n=9,3,6; for EC50: Homo sapiens; for % Response, contraction (C), LIMA / % Response, relaxation (R), LIMA: NE-precontracted (1 μM) LIMA, 10 min exposure to 1 mmol/L, percentage change of NE-precontraction tension; for effect of pretreatment on MA-induced relaxation: L-NAME 200 μmol/L and/or INDO 100 μmol/L
[2] = system: human left internal mammary artery (LIMA)
[3] = target: homogenized rat aortic SSAO activity (Rattus norvegicus, UniProt O08590); details: read-out: Km for homogenized rat aortic SSAO activity; cited from earlier work
homogenized rat aortic SSAO activity, sequence (O08590 whole entry): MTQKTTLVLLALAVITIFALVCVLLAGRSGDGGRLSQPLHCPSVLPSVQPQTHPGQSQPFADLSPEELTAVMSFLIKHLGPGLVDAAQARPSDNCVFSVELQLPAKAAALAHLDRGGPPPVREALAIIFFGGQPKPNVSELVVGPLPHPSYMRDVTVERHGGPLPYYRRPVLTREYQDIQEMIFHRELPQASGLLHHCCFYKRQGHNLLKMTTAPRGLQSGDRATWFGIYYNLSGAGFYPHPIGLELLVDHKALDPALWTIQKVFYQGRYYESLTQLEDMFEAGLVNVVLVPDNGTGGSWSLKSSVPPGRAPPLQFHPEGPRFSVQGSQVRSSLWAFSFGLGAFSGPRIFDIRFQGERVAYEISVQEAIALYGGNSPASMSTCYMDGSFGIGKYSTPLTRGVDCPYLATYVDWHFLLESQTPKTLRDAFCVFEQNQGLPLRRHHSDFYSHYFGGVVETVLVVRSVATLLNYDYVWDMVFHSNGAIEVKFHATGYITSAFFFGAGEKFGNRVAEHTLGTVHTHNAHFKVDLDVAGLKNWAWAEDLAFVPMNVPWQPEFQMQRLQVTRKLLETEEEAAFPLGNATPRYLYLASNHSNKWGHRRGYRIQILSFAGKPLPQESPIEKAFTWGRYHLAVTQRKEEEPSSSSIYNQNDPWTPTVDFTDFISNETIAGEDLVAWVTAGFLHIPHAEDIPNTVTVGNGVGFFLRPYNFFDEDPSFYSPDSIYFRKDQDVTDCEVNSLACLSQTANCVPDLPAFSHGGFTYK

cGMP level in human LIMA = experiment: cGMP ELISA assay in LIMA segments; details: NE-precontracted LIMA, MA 1 mmol/L, 30-40 min, control 0.128 ± 0.034
humans = details: cited from earlier work
[4] = target: SSAO of human cerebral microvessels (Homo sapiens, UniProt Q16853); details: read-out: Km, human cerebral microvessels; cited from earlier work
human radial artery (RA) = experiment: Vascular ring physiology, isolated human radial artery rings
[5] = target: SSAO of human umbilical artery (Homo sapiens, UniProt Q16853); details: read-out: Km, human umbilical artery; cited from earlier work
[6] = target: T1, SSAO activity in homogenized human LIMA (Homo sapiens, UniProt Q16853); experiment: Radiometric SSAO assay (14C-benzylamine), homogenized LIMA; assay type: biochemical; details: homogenate preincubated 20 min, 37° C.; n=25
T1 construct: Blood vessel segments were homogenized in Sorensen's Na^+/K^+-phosphate buffered solution; from tissue; host or cells: human left internal mammary artery (LIMA), supernatant of homogenate
T1 sequence (Q16853 1-763): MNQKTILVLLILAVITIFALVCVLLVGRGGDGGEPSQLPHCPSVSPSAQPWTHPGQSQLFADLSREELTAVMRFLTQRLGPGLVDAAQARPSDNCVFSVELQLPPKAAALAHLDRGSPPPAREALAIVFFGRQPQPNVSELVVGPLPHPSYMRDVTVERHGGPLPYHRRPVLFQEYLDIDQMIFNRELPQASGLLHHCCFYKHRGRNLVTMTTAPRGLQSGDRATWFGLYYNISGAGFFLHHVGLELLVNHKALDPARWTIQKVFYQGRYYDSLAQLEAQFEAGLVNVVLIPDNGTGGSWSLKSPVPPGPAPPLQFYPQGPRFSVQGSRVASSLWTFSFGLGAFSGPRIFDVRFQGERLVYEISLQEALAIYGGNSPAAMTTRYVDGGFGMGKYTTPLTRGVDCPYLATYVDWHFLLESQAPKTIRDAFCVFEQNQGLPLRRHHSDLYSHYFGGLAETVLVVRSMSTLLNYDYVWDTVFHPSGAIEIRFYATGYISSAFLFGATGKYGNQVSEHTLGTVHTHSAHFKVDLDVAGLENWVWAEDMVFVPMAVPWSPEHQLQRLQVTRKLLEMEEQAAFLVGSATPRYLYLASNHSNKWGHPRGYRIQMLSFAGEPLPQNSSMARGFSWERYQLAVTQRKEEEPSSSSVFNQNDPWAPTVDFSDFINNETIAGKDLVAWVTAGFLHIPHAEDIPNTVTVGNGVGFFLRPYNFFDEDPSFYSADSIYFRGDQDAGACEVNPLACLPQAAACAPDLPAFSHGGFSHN

[7] = target: T2, SSAO activity in homogenized human RA (Homo sapiens, UniProt Q16853); experiment: Radiometric SSAO assay (14C-benzylamine), homogenized RA; assay type: biochemical; details: homogenate preincubated 20 min, 37° C.; n=10
T2 construct: Blood vessel segments were homogenized in Sorensen's Na^+/K^+-phosphate buffered solution; from tissue; host or cells: human radial artery (RA), supernatant of homogenate
T2 sequence (Q16853 1-763): T1 sequence (Q16853 1-763)

[8] = target: T3, SSAO activity in homogenized human RSV (Homo sapiens, UniProt Q16853); experiment: Radiometric SSAO assay (14C-benzylamine), homogenized RSV; assay type: biochemical; details: homogenate preincubated 20 min, 37° C.; n=5
T3 sequence (Q16853 1-763): T1 sequence (Q16853 1-763)

[9] = target: T4, SSAO in human saphenous vein (Homo sapiens, UniProt Q16853); details: read-out: IC50 of SSAO inhibition in human saphenous vein, literature; cited from earlier work
T4 sequence (Q16853 1-763): T1 sequence (Q16853 1-763)

[10] = read-out: Apparent EC50, contraction (C), LIMA
[11] = read-out: Apparent EC50, relaxation (R), LIMA
[12] = NE-precontracted LIMA, repeated methylamine exposure, n=5

CC(=O)OCC[N+](C)(C)C [ACh, acetylcholine]
ACh-induced relaxation, ACh added after MA (post-MA ACh) ([1]; NE-precontracted LIMA, ACh 1 μmol/L, n=20, mean ± SE): 14±6%
ACh-induced relaxation, ACh added before MA (pre-MA ACh) ([1]; NE-precontracted LIMA, ACh 1 μmol/L, n=21, mean ± SE): 25±6%
mean relaxation half time (t1/2), NE-precontracted LIMA [2]: 1.07 ± 0.122 min

C=O [Formaldehyde, formaldehyde]
response in HI K+-precontracted LIMA, % of HI K+ tension (contraction) ([1]; 1 mmol/L, 10 min, mean ± SE): 12.9±2.4%
EC50 [1, 10]: 315 µM
EC50 [1, 11]: 315 µM
% Response, contraction (C), LIMA ([1]; mean ± SE): 3.7 ± 3.7%
% Response, relaxation (R), LIMA ([1]; mean ± SE): 37.3 ± 18.6%

OO [H2O2, hydrogen peroxide]
response in HI K+-precontracted LIMA, % of HI K+ tension (contraction) ([1]; 1 mmol/L, 10 min, mean ± SE): 21.1±7.7%
EC50 [1, 10]: 175 ± 58 µM
EC50 [1, 11]: 162 ± 41 µM
% Response, contraction (C), LIMA ([1]; mean ± SE): 15.8 ± 5.3%
% Response, relaxation (R), LIMA ([1]; mean ± SE): 55.6 ± 9.0%

COc1ccc2c(c1)c(CC(=O)O)c(C)n2C(=O)c1ccc(Cl)cc1 [INDO, indomethacin]
effect of pretreatment on MA-induced relaxation ([1]; NE-precontracted LIMA, 20 min): neither INDO alone (100 μmol/L; 20 min) nor L-NAME+INDO pretreatment affected the MA-induced relaxation

COC(=O)[C@@H](N)CCCNC(=N)N[N+](=O)[O-] [L-NAME, N^ω-nitro-L-arginine methyl ester]
effect of pretreatment on ACh-induced relaxation ([1]; L-NAME 200 μmol/L, 20 min, subset of LIMA rings with relatively strong ACh relaxation): significantly inhibited the ACh-induced relaxation
effect of pretreatment on MA-induced relaxation ([1]; NE-precontracted LIMA, 20 min): had no effect on MA-induced relaxation

C=CCN [allylamine, reference compound]
Km [3]: 145 µM

CN [methylamine]
[cGMP], LIMA, <50% relaxation subgroup (cGMP level in human LIMA; vessels with <50% relaxation (n=3)): 0.067 ± 0.029 pmol/mg
[cGMP], LIMA, >50% relaxation subgroup (cGMP level in human LIMA; vessels with >50% relaxation (n=6)): 0.227 ± 0.066 pmol/mg
fatalities after accidental exposure (humans; 35 persons hospitalized 7-8 hours post-exposure to spilled purified liquid methylamine): 6
persons with light to deep coma after accidental exposure (humans; of 35 people): 10 of 35
Km [4]: 22 µM
response in HI K+-precontracted LIMA, % of HI K+ tension (contraction) ([1]; 1 mmol/L, 10 min, mean ± SE): 1.7±3.9%
EC50 [1, 11]: 230 ± 30 µM
ACh relaxation after prior exposure, percentage reduction in HI K+ contraction ([1]; LIMA n=7, ACh 1 μM after methylamine 1 mM 10 min (± SEMI 1 mM 15 min) and three PSS bath changes): 20 ± 11%
HI K+ contraction after prior exposure, percentage of control norepinephrine contraction ([1]; LIMA n=7, HI K+ 100 mM after methylamine 1 mM 10 min (± SEMI 1 mM 15 min) and three PSS bath changes): 102 ± 23%
SNP relaxation after prior exposure, percentage reduction in HI K+ contraction ([1]; LIMA n=7, SNP 100 μM after methylamine 1 mM 10 min (± SEMI 1 mM 15 min) and three PSS bath changes): 90 ± 11%
methylamine relaxation relative to ACh-induced relaxation ([1]; LIMA, on average, regardless of order of addition): > 2 times
% Response, contraction (C), LIMA ([1]; mean ± SE): 0.6 ± 0.3%
% Response, relaxation (R), LIMA ([1]; mean ± SE): 55.4 ± 3.9%
% relaxation, 3rd relaxation ([1]; NE-precontracted LIMA, repeated methylamine exposure, n=1): 82.1%
% relaxation, 1st relaxation [1, 12]: 72.0±7.5%
% relaxation, 2nd relaxation [1, 12]: 60.8±12.6%
% reduction of NE-contraction, methylamine post-NE ([1]; NE-precontracted LIMA, 1 mmol/L, 10 min, n=9, mean ± SE): 61±5%
% Relaxation, LIMA, <50% relaxation subgroup ([1]; NE-precontracted LIMA, MA 1 mmol/L, 30-40 min, vessels with <50% relaxation (n=3)): 34.1 ± 7.1%
% Relaxation, LIMA, >50% relaxation subgroup ([1]; NE-precontracted LIMA, MA 1 mmol/L, 30-40 min, vessels with >50% relaxation (n=6)): 87.8 ± 5.0%
Apparent EC50, contraction (C), LIMA ([1]; cumulative concentrations 1-1000 μM, uncontracted and NE-precontracted vessels pooled, mean ± SE): not observed
% reduction of NE-contraction, methylamine pre-NE ([1]; unstimulated LIMA exposed to 1 mmol/L, 10 min, before NE, n=5, mean ± SE): 53±7%
[cGMP], RSV (cGMP level in human RSV): 0.109 ± 0.030 pmol/mg
Km [3]: 247 µM
EC50 (human radial artery (RA); read-out: Apparent EC50, contraction (C), RA): 65 ± 48 µM
EC50 (human radial artery (RA); read-out: Apparent EC50, relaxation (R), RA): 280 ± 40 µM
Km [5]: 832 µM

NNC(N)=O [semicarbazide]
IC50 [6]: 16.7 ± 19.5 µM
mean % reversal of methylamine-induced relaxation ([1]; NE-precontracted LIMA, within 10 min of addition of 1 mmol/L semicarbazide, n=2): 63.0±15.8%
effect of pretreatment on methylamine-induced relaxation in LIMA ([1]; semicarbazide pretreatment 1 mmol/L, 15 min, no effect on NE contraction or ACh relaxation): significantly reduced the methylamine-induced relaxation
IC50 [7]: 21.2 ± 11.2 µM
IC50 [8]: 14.7 µM
IC50 [9]: 500 µM
